Test results reported in the supplement of paper PMC10307832.

How the values were obtained:
Assay in all cases: relative viability (nuclei count vs DMSO), 5 days (fraction); higher = more cells survive
Venetoclax + Trametinib = compound: CC1(C)CCC(CN2CCN(c3ccc(C(=O)NS(=O)(=O)c4ccc(NCC5CCOCC5)c([N+](=O)[O-])c4)c(Oc4cnc5[nH]ccc5c4)c3)CC2)=C(c2ccc(Cl)cc2)C1 [Venetoclax] + CC(=O)Nc1cccc(-n2c(=O)n(C3CC3)c(=O)c3c(Nc4ccc(I)cc4F)n(C)c(=O)c(C)c32)c1 [Trametinib] (partner 0.02 µM)
In short: (§1)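 Lung cancer cell lines were pin-tool dosed in 1536-well plates on the day after seeding, with either a lone drug or a fixed anchor-drug dose plus five library-drug doses (not always all listed) in √10 steps. Nuclei were counted on 4× images after 5 days. Relative viability is the ratio of treated-well to vehicle-well nuclei counts, with each value a median of duplicate plates.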

Venetoclax + Pictilisib = compound: CC1(C)CCC(CN2CCN(c3ccc(C(=O)NS(=O)(=O)c4ccc(NCC5CCOCC5)c([N+](=O)[O-])c4)c(Oc4cnc5[nH]ccc5c4)c3)CC2)=C(c2ccc(Cl)cc2)C1 [Venetoclax] + CS(=O)(=O)N1CCN(Cc2cc3nc(-c4cccc5[nH]ncc45)nc(N4CCOCC4)c3s2)CC1 [Pictilisib] (partner 1 µM)
In short: as §1

Venetoclax + AZD7762 = compound: CC1(C)CCC(CN2CCN(c3ccc(C(=O)NS(=O)(=O)c4ccc(NCC5CCOCC5)c([N+](=O)[O-])c4)c(Oc4cnc5[nH]ccc5c4)c3)CC2)=C(c2ccc(Cl)cc2)C1 [Venetoclax] + NC(=O)Nc1cc(-c2cccc(F)c2)sc1C(=O)N[C@H]1CCCNC1 [AZD7762] (partner 0.2 µM)
In short: as §1

Selumetinib + Phenformin = compound: Cn1cnc2c(F)c(Nc3ccc(Br)cc3Cl)c(C(=O)NOCCO)cc21 [Selumetinib] + N=C(N)NC(=N)NCCc1ccccc1 [Phenformin] (partner 250 µM)
In short: as §1

| Cell Line | relative viability (Venetoclax + Trametinib; first compound 0.01 µM) | relative viability (Venetoclax + Trametinib; first compound 0.03162 µM) | relative viability (Venetoclax + Trametinib; first compound 0.1 µM) | relative viability (Venetoclax + Trametinib; first compound 0.3162 µM) | relative viability (Venetoclax + Trametinib; first compound 1 µM) | relative viability (Venetoclax + Pictilisib; first compound 0.01 µM) | relative viability (Venetoclax + Pictilisib; first compound 0.03162 µM) | relative viability (Venetoclax + Pictilisib; first compound 0.3162 µM) | relative viability (Venetoclax + Pictilisib; first compound 1 µM) | relative viability (Venetoclax + AZD7762; first compound 0.01 µM) | relative viability (Venetoclax + AZD7762; first compound 0.03162 µM) | relative viability (Venetoclax + AZD7762; first compound 0.1 µM) | relative viability (Venetoclax + AZD7762; first compound 0.3162 µM) | relative viability (Venetoclax + AZD7762; first compound 1 µM) | relative viability (Selumetinib + Phenformin; first compound 0.02 µM) | relative viability (Selumetinib + Phenformin; first compound 0.06325 µM) | relative viability (Selumetinib + Phenformin; first compound 0.2 µM) | relative viability (Selumetinib + Phenformin; first compound 0.6325 µM) | relative viability (Venetoclax + Pictilisib; first compound 0.1 µM) |
| --- | --- | --- | --- | --- | --- | --- | --- | --- | --- | --- | --- | --- | --- | --- | --- | --- | --- | --- | --- |
| NCI-H2405 | 0.769 | 0.603 | 0.584 | 0.646 | 0.591 | 0.505 | 0.472 | 0.394 | 0.402 | 0.628 | 0.722 | 0.744 | 0.748 | 0.657 | 0.344 | 0.319 | 0.296 | 0.164 | – |
| NCI-H1395 | 1.05 | 0.944 | 1.02 | 1.06 | 1.05 | 0.643 | 0.74 | 0.602 | 0.633 | 0.402 | 0.442 | 0.392 | 0.434 | 0.405 | 0.447 | 0.42 | 0.456 | 0.475 | 0.611 |
| 201T | 0.675 | 0.699 | 0.713 | 0.682 | 0.696 | 0.635 | 0.653 | 0.73 | 0.683 | 0.572 | 0.634 | 0.612 | 0.644 | 0.639 | 0.507 | 0.406 | 0.455 | 0.421 | 0.659 |
| NCI-H2170 | 0.859 | 0.97 | 0.841 | 0.812 | 0.87 | 0.266 | 0.3 | 0.306 | 0.302 | 0.735 | 0.805 | 0.692 | 0.806 | 0.763 | 0.408 | 0.395 | 0.386 | 0.326 | 0.296 |
| NCI-H596 | 0.731 | 0.746 | 0.851 | 0.951 | 0.755 | 0.402 | 0.408 | 0.391 | 0.364 | 1.12 | 0.975 | 1.27 | 1.12 | 1.2 | 0.894 | 0.695 | 0.751 | 0.564 | 0.354 |
| NCI-H838 | 0.559 | 0.522 | 0.524 | 0.491 | 0.488 | 0.661 | 0.48 | 0.465 | 0.534 | 0.93 | 0.999 | 0.877 | 0.923 | 0.837 | 0.502 | 0.481 | 0.505 | 0.474 | 0.474 |
| HCC-366 | 0.358 | 0.411 | 0.353 | 0.383 | 0.407 | 0.193 | 0.154 | 0.184 | 0.138 | 0.332 | 0.202 | 0.214 | 0.25 | 0.141 | 0.594 | 0.607 | 0.512 | 0.361 | 0.0731 |
| NCI-H1651 | 0.88 | 0.89 | 0.804 | 0.838 | 0.926 | 0.6 | 0.626 | 0.482 | 0.533 | 0.505 | 0.481 | 0.486 | 0.428 | 0.386 | 0.329 | 0.264 | 0.281 | 0.298 | 0.481 |
| LOU-NH91 | 0.784 | 0.81 | 0.768 | 0.807 | 0.707 | 0.515 | 0.565 | 0.523 | 0.53 | 0.766 | 0.8 | 0.723 | 0.777 | 0.63 | 0.674 | 0.69 | 0.688 | 0.661 | 0.54 |
| H3255 | 0.586 | 0.648 | 0.603 | 0.517 | 0.582 | 0.47 | 0.527 | 0.486 | 0.482 | 0.875 | 0.999 | 0.944 | 0.901 | 0.782 | 0.385 | 0.367 | 0.332 | 0.318 | 0.457 |
